{"source": "patent US5716956A", "about": "“Dihydrophthalazine antagonists of excitatory amino acid receptors” (Bearsden Bearsden Bio, Inc., priority 1996, dated 1998)", "key": {"AMPA receptor": {"test_system": "AMPA receptor", "assay": "AMPA receptor inhibition, whole-cell patch clamp, KA-stimulated currents in primary cultures of rat neocortex", "assay_type": "cell-based", "conditions": "rat cortical neurons; for AMPA % INHIBITION (10 μM drug): KA 50 μM; for IC50: 5 doses", "experimental": "The potency of Examples 1-5, 7, 11, 17 and 31 listed in Table 1, for drug inhibition of the AMPA receptor was tested using the whole-cell patch clamp technique on primary cultures of rat neocortex. The general procedure for stimulating AMPA-receptor mediated currents with KA and for the measurement of current inhibition is based on that used by Donevan and Rogawski (Neuron, 10:51-59, 1993) for 2,3-benzodiazepines.\nStandard extracellular bath solutions and intracellular pipette solutions are used as described in detail by Hussy and coworkers (J. Physiol. (Lond.), 481.2:311-323,1994). The drug application system is designed to allow rapid switching between 7 different reservoirs containing either control bath solution, kainic acid (50 μM), or kainic acid (50 μM) plus antagonist (10 μM). Each recording is begun with a control response to KA alone.\nFollowing the establishment of a 2-3 sec duration steady baseline, bathing solution is switched to one containing KA plus antagonist for an additional 2-3 sec period. Alternatively, 5 different doses of a single compound are tested for the determination of the antagonist IC50. The results of the assay of Examples 1-5, 7, 11, 17 and 31 are listed below in Table 3, which illustrates AMPA receptor inhibition in rat cortical neurons. The compounds tested all were useful as antagonists of non-NMDA EAA receptors."}, "Male NIH Swiss mice": {"test_system": "Male NIH Swiss mice", "assay": "Maximum Electro Shock (MES) Seizure Test", "assay_type": "in vivo", "conditions": "ip, 0.5 hours", "experimental": "The extent of protection by a test compound in a seizure model is tested as described by Rogawski et al. (Epilepsy Research, 15:179-184, 1993). Male NIH Swiss mice (25-30 g) are injected ip with the test drug. The mice are subjected to a 0.2 sec, 60 Hz, 50 mA electrical stimulus delivered with corneal electrodes wetted with 0.9% saline at 15-30 min post dosing. Animals failing to show tonic hind limb extension are scored as protected. Compounds may be selected which are active in this model."}, "Mice": {"test_system": "Mice", "assay": "Subcutaneous Metrazol (scMET) Seizure Test", "assay_type": "in vivo", "conditions": "30 mg/kg, 0.5 hr, metrazol 90 mg/kg sc", "experimental": "This test is to determine the extent of protection by a test compound in a seizure model. The method used is that of Chen et at. (Proc. Soc. Exp. Biol. Med., 87:334, 1954). Mice are randomly assigned to vehicle or treatment groups of 3-10 animals per group and then dosed accordingly. Metrazol (pentylenetetrazol) 90 mg/kg is administered subcutaneously (sc) at different time points (0.25, 0.5, 1, 2, 4 hr) after the treatment or control groups. The mice individually housed in clear runs and observed for the presence or absence of clonic seizure activity (>5 s duration) for 30 min after metrazol dosing. A compound is considered active if no seizure is observed. Data is analyzed using a quantal measure (protection/number tested)."}, "cortical infarct volumes": {"test_system": "cortical infarct volumes", "conditions": "cited from earlier work"}, "global ischemia": {"test_system": "global ischemia", "conditions": "rat common carotid arteries model; cited from earlier work"}}, "note": "Where two headings read alike, the source gives them in different places.", "data": [{"smiles": "CNC(=O)N1N=C(c2ccc(N)cc2)c2cc3c(cc2C1C)OCO3", "note": "(stereo not drawn) [Example 1, 4-(4-Aminophenyl)-1,2-dihydro-1-methyl-2-(N\"-methylcarbamoyl)-6,7-methylendioxyphthalazine]", "values": [{"measurement": "AMPA % INHIBITION (10 μM drug)", "setting": "AMPA receptor", "result": 20, "unit": "%"}, {"measurement": "IC50", "setting": "AMPA receptor", "result": 23, "unit": "µM"}]}, {"smiles": "CCNC(=O)N1N=C(c2ccc(N)cc2)c2cc3c(cc2C1C)OCO3", "note": "(stereo not drawn) [Example 2, 4-(4-Aminophenyl)-1,2-dihydro-2-(N-ethylcarbamoyl)-1-methyl-6,7-methylendioxyphthalazine]", "values": [{"measurement": "AMPA % INHIBITION (10 μM drug)", "setting": "AMPA receptor", "result": 55, "unit": "%"}, {"measurement": "IC50", "setting": "AMPA receptor", "result": 7.2, "unit": "µM"}, {"measurement": "MES Score (protected/no. tested)", "setting": "Male NIH Swiss mice; 30 mg/kg", "result": "3/3"}]}, {"smiles": "CCCNC(=O)N1N=C(c2ccc(N)cc2)c2cc3c(cc2C1C)OCO3", "note": "(stereo not drawn) [Example 3, 4-(4-Aminophenyl)-1,2-dihydro-1-methyl-2-propylcarbamoyl-6,7-methylendioxyphthalazine]", "values": [{"measurement": "AMPA % INHIBITION (10 μM drug)", "setting": "AMPA receptor", "result": 80, "unit": "%"}, {"measurement": "IC50", "setting": "AMPA receptor", "result": 2.8, "unit": "µM"}, {"measurement": "MES Score (protected/no. tested)", "setting": "Male NIH Swiss mice; 31 mg/kg", "result": "5/8"}]}, {"smiles": "CC(C)NC(=O)N1N=C(c2ccc(N)cc2)c2cc3c(cc2C1C)OCO3", "note": "(stereo not drawn) [Example 4, 4-(4-Aminophenyl)-1,2-dihydro-1-methyl-2-isopropylcarbamoyl-6,7-methylendioxyphthalazine]", "values": [{"measurement": "AMPA % INHIBITION (10 μM drug)", "setting": "AMPA receptor", "result": 45, "unit": "%"}]}, {"smiles": "CCCCNC(=O)N1N=C(c2ccc(N)cc2)c2cc3c(cc2C1C)OCO3", "note": "(stereo not drawn) [Example 5, 4-(4-Aminophenyl)-1,2-dihydro-1-methyl-2-n-butylcarbamoyl-6,7-methylenedioxyphthalazine]", "values": [{"measurement": "AMPA % INHIBITION (10 μM drug)", "setting": "AMPA receptor", "result": 86, "unit": "%"}, {"measurement": "IC50", "setting": "AMPA receptor", "result": 1.8, "unit": "µM"}]}, {"smiles": "CC1c2cc3c(cc2C(c2ccc(N)cc2)=NN1C(=O)NC(C)(C)C)OCO3", "note": "(stereo not drawn) [Example 7]", "values": [{"measurement": "AMPA % INHIBITION (10 μM drug)", "setting": "AMPA receptor", "result": 70, "unit": "%"}, {"measurement": "IC50", "setting": "AMPA receptor", "result": 5.4, "unit": "µM"}]}, {"smiles": "CCC1c2cc3c(cc2C(c2ccc(N)cc2)=NN1C(=O)NC)OCO3", "note": "(stereo not drawn) [Example 11, 4-(4-Aminophenyl)-1,2-dihydro-1-ethyl-2-methylcarbamoyl-6,7-methylendioxyphthalazine]", "values": [{"measurement": "AMPA % INHIBITION (10 μM drug)", "setting": "AMPA receptor", "result": 36, "unit": "%"}]}, {"smiles": "CC(=O)N1N=C(c2ccc(N)cc2)c2cc3c(cc2C1C)OCO3", "note": "(stereo not drawn) [Example 17]", "values": [{"measurement": "AMPA % INHIBITION (10 μM drug)", "setting": "AMPA receptor", "result": 20, "unit": "%"}]}, {"smiles": "CC1c2cc3c(cc2C(c2ccc(N)cc2)=NN1C(=O)N(C)C)OCO3", "note": "(stereo not drawn) [Example 31, 4-(4-Aminophenyl)-1,2-dihydro-2-(N,N-dimethylcarbamoyl)-1-methyl-6,7-methylendioxyphthalazine]", "values": [{"measurement": "AMPA % INHIBITION (10 μM drug)", "setting": "AMPA receptor", "result": 33, "unit": "%"}]}, {"smiles": "CCCNC(=O)N1N=C(c2ccc(N)cc2)c2cc(OC)c(OC)cc2C1C", "note": "(stereo not drawn) [Example 133]", "values": [{"measurement": "MES Score (protected/no. tested)", "setting": "Male NIH Swiss mice; 30 mg/kg", "result": "1/3"}, {"measurement": "scMET Score (protect./no. tested)", "setting": "Mice", "result": "1/5"}]}, {"smiles": "CC1=NN=C(c2ccc(N)cc2)c2cc3c(cc2C1)OCO3", "note": "[GYKI 52466]", "values": [{"measurement": "reduction of cortical infarct volumes", "setting": "cortical infarct volumes; delayed for one hour", "result": 48, "unit": "%"}, {"measurement": "reduction of cortical infarct volumes", "setting": "cortical infarct volumes; given continuously for 2 hours just after occlusion", "result": 68, "unit": "%"}, {"measurement": "effectiveness in global ischemia compared with NBQX", "setting": "global ischemia", "result": "as effective as the glutamate site competitive antagonist NBQX"}]}]}
